Laboratory results as given in patent publication US20240217946A1, “ANTIDEPRESSANT AND ANXIOLYTIC SUBSTITUTED CINNAMAMIDE COMPOUND” (TASLY PHARMACEUTICAL GROUP CO., LTD., priority 2021, published 2024).

Columns and labels:
ICR mice = experiment: Elevated plus maze experiment in mice, single administration; assay type: in vivo
Description: 50 male ICR mice were randomly divided into 5 groups (a solvent control group, estazolam group, M2 high dosage group, M2 medium dosage group, M2 low dosage group), with 10 mice in each group. The compound M2 high, medium and low dosage groups were intragastrically administered at 20 mg/kg. 10 mg/kg and 5 mg/kg, respectively; the positive drug estazolam was intragastrically administered at 2.5 mg/kg; and the solvent control group was gavaged with an equal volume of solvent. Behavior test was performed in each group 30 min after single administration. The experiments were required to be conducted between 8:00 am and […], and all animals entered the test laboratory on the previous day.
The laboratory was dimly lit (with the lowest brightness that can distinguish the subtle activities of mice at a distance of 1.5 m) and the brightness was kept constant, with a room temperature of about 20° C., and kept quiet. Before the maze test, each mouse was placed in a 35 cm*10 cm*5 cm plastic box and left to explore freely for 5 min and then quickly placed at the central platform of an elevated plus maze, with its head facing one of the open arms, and the following indexes were recorded upon release. Each mouse was tested for 5 min. Observers observed and recorded animal activities at a distance of 1.5 m. At intervals, the maze was wiped with a wet cloth to remove feces, and then wiped with a dry cloth before a next mouse was tested.
• (1) The number of open arm entries (OE): the number of entries into any open arm, based on the fact that all four claws of the mouse entered the arm, and a complete exit of one claw from the arm indicated the completion of the entry activity; • (2) open arm time (OT): the time of entering an open arm, with the unit of seconds; • (3) the number of close arm entries (CE): the number of entries into any close arm, based on the fact that all four claws of the mouse entered the arm; • (4) close arm time (CT): the time of entering a close arm, with the unit of seconds; • (5) percentage of open arm time: OT %=OT/(OT+CT)*100%; and • (6) percentage of open arm entries: OE %=OE/(OE+CE)*100%.
70 male ICR mice were randomly divided into 7 groups (a solvent control group, estazolam group, compound M2 group, compound II-3 group, compound II-4 group, compound II-5 group, and compound II-10 group), with 10 mice in each group. The dosage of M2 and its four structurally similar compounds was determined as 20 mg/kg according to the experimental results of 3.1: the positive drug estazolam was administered intragastrically at 2.5 mg/kg; and the solvent control group was gavaged with an equal volume of solvent. Behavior test was performed in each group 30 min after single administration. The experiments were required to be conducted between 8:00 am and […], and all animals entered the test laboratory on the previous day.
The behavioral test method and behavioral observation indexes were the same as those in 3.1.
(§1) Data was expressed as mean±standard (mean±SD) difference, and statistics of data differences were made by one-way analysis of variance (ANOVA) or nonparametric test, and differences between groups were determined by P<0.05.

SD rats = experiment: Vogel drinking conflict experiment in rats, single administration; assay type: in vivo
Description: 75 male SD rats, with the body weight of 180-220 g, were fed adaptively for 1 week, water deprived for 24 h for training period test. The animals screened to be qualified were randomly divided into 7 groups (a solvent control group, estazolam group, compound M2 group, compound II-3 group, compound II-4 group, compound II-5 group and compound II-10 group) according to their body weight, with 8 rats in each group. […] results of 3.1: the positive drug estazolam was administered intragastrically at 1.24 mg/kg; and the solvent control group was gavaged with an equal volume of solvent. The grouped animals were continued to be water deprived for 24 h and were given a single dose, and tested in a punishment experiment 30 min after the single dose.
The experiment was carried out in two stages. The first stage is a training stage, in which 24 h after water deprivation, animals were placed in an operation box separately, and were allowed to fully explore until they found the bottle mouth and started to lick water (with an intensity of electric shock being 0 mA), a counter automatically recorded the number of licks within 3 min, and the animals that licked water less than 300 times were eliminated.
Observation index: the number of water licks of rats in the punishment stage.
as §1

mice [1] = conditions: 10 mg/kg for 7 days; cited from earlier work
mice [2] = conditions: 10 mg/kg continuously for 7 days; cited from earlier work
mice [3] = conditions: mouse, in vivo; cited from earlier work
[4] = comparative study (Table 13), 20 mg/kg i.g., 30 min after single administration

O=C(/C=C/c1cc2c(c(C(F)(F)F)c1)OCO2)N1CCCCC1 [Compound II-10]
OE % (ICR mice; [4]): 50.00 ± 10.23 %
OT % (ICR mice; [4]): 52.08 ± 12.25 %
anxiolytic activity in elevated plus maze vs solvent control group (ICR mice; comparative study, single intragastric administration of 20 mg/kg): significant anxiolytic activity
Number of times of drinking water (SD rats; 10 mg/kg i.g., 30 min after single dose, punishment stage 3 min, n = 8): 499.61 ± 133.93
anxiolytic activity in drinking conflict experiment vs solvent control group (SD rats; single intragastric administration of 20 mg/kg): significant anxiolytic activity
immobility time of tail suspension in mice (mice [1]): significantly shorten the immobility time
reserpine-induced body temperature decrease and akinesia in mice, degree of eye closure (mice [2]): significantly antagonizing
immobility time of forced swimming in mice (mice [3]): significantly shorten the immobility time
